Data as given in the NIST ThermoML archive (doi:10.1016/j.fluid.2017.03.021).

Conditions: 101.33 kPa, Liquid, Vibrating tube method

CCCCCC[n+]1ccn(C)c1.O=S(=O)([N-]S(=O)(=O)C(F)(F)F)C(F)(F)F
Conditions	mass density [kg/m3]
293.15 K	1377.1
298.15 K	1372.5
303.15 K	1367.8
308.15 K	1363.5
313.15 K	1358.7
318.15 K	1354.3
323.15 K	1349.6
328.15 K	1345.2
333.15 K	1340.5
338.15 K	1336.2
343.15 K	1331.6
